# pIC50: −log10 of the molar value. Where “and” joins values, the source holds several entries; their conditions need not be identical. Equal values may be shown once. Calls of active or inactive are those of the source.
# Tests used:
# [1] = biological target: 1-phosphatidylinositol 4,5-bisphosphate phosphodiesterase beta-3 (Homo sapiens, UniProt Q01970); experiment: Fluorescence-based biochemical high throughput dose response assay to identify inhibitors of phospholipase C isozymes (PLC-B3).
# [2] = biological target: 1-phosphatidylinositol 4,5-bisphosphate phosphodiesterase gamma-1 (Homo sapiens, UniProt P19174); experiment: Counterscreen for inhibitors of phospholipase C isozymes (PLC-B3): Fluorescence-based biochemical high throughput dose response assay to identify inhibitors of phospholipase C isozymes (PLC-gamma1).
# Sequence of 1-phosphatidylinositol 4,5-bisphosphate phosphodiesterase gamma-1 (P19174 whole entry): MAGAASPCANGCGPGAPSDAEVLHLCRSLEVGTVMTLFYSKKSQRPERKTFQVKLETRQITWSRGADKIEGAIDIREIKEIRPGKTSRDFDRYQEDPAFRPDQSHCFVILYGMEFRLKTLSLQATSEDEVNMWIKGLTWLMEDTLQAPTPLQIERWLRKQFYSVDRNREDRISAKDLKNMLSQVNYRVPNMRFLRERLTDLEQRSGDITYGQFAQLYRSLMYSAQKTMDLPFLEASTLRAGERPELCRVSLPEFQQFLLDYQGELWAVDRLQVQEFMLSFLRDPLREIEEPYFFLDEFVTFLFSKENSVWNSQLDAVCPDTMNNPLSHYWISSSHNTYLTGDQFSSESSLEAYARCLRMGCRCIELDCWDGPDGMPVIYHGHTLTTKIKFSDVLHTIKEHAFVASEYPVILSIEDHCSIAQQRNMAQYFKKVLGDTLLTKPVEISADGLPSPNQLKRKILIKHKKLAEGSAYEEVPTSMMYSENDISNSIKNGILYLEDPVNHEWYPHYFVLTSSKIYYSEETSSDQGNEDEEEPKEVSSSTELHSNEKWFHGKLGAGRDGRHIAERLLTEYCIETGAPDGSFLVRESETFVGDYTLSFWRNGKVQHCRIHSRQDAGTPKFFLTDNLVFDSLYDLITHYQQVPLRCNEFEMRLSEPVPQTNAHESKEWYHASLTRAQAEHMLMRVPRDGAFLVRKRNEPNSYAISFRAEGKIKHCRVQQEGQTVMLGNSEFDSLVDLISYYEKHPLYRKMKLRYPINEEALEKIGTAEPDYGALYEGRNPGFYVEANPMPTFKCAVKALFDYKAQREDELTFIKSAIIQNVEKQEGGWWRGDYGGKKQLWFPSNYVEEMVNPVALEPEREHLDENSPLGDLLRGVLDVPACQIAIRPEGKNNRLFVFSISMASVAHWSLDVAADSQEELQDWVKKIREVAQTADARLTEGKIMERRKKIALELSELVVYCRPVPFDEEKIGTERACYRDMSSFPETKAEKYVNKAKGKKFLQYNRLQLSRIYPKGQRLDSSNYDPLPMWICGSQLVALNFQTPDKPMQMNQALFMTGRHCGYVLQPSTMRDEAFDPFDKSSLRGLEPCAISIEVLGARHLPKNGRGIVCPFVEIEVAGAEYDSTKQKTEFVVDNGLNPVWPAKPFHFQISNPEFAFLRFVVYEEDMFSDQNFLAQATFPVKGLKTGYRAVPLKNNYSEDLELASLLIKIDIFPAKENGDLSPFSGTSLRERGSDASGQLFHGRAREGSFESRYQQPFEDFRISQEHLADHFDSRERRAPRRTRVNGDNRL
# cells = settings: HEK293
# [3] = biological target: T1, Beta-2 adrenergic receptor (Homo sapiens, UniProt P07550); experiment: Dose response for HTS for Beta-2AR agonists via FAP method from Powderset1.; type: functional
# T1 sequence (P07550 whole entry): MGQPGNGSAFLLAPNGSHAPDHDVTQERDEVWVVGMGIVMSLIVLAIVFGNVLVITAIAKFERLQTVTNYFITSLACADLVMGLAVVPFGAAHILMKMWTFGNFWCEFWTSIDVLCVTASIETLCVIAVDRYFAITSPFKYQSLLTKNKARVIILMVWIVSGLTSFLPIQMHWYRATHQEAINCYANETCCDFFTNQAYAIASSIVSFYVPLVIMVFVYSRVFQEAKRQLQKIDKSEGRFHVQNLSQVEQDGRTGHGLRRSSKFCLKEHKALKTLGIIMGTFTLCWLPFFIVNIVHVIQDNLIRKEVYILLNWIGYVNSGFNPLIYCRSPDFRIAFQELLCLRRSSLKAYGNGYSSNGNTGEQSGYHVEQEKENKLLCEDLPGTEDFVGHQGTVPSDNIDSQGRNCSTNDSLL
# [4] = biological target: T1, Beta-2 adrenergic receptor; experiment: ADRB2 activation measured by internalization – cell-based, FAP fluorogen, flow cytometry, cherry pick 1, dose response (AID 588763); type: functional
# [5] = HGIII-sPLA2 enzyme inhibition potency – biochemical, QFRET, IC50, dose response (AID 743457);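 further: green fluorescence rise as the enzyme cleaves BODIPY PC-A2 in liposomes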
# [6] = test system: Streptococcus sp. 'group A'; experiment: Streptococcus pyogenes SK(-)GAS viability under kanamycin – luminescence, BacTiterGlo, confirmation, counter-screen for streptokinase expression inhibitor project, dose response (AID 1900); type: functional, organism-based
# Streptococcus = experiment: GAS UMAA2166 growth inhibition – luminescence, BacTiterGlo, counter-screen for streptokinase expression inhibitor project, dose response (AID 1915); type: functional, organism-based;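 further: potency for reduction of bacterial viability or growth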
# Beta-galactosidase = Beta-galactosidase (Escherichia coli, UniProt Q8VNN2); experiment: Dose response counterscreen for EBI2 assay utilizing the enzyme, b-galactosidase.; type: functional
# Estrogen receptor beta [7] = biological target: T2, Estrogen receptor beta (Homo sapiens, UniProt Q92731); experiment: blockers of SRC-3 recruitment to ERβ – biochemical, ELISA, streptavidin-HRP readout, orthogonal assay, confirmation (AID 1060)
# T2 sequence (Q92731 whole entry): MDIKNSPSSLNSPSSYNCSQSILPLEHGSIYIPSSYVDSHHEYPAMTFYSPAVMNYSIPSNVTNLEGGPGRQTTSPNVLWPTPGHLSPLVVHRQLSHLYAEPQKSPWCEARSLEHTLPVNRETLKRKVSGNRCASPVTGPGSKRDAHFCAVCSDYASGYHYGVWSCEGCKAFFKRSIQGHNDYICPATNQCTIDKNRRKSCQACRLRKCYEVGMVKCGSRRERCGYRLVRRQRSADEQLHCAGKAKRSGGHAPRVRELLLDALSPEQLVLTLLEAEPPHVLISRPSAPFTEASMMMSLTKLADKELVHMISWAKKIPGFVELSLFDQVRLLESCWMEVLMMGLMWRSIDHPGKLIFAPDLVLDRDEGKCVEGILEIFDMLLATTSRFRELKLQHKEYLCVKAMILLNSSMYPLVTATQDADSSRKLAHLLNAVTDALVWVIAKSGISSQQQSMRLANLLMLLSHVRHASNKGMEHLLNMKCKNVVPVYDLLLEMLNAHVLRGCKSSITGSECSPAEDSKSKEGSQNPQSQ
# [8] = viability loss in HEK293T cells – cell-based, cherry-picks, cytotoxicity control for HIV Vif inhibitor project, dose response (AID 652208); type: functional
# Estrogen receptor beta [9] = biological target: T2, Estrogen receptor beta
# [10] = viability loss in HEK293 cells – cell-based, plate reader, cherry-picked samples, cytotoxicity control, dose response (AID 743446); type: functional
# [11] = toxicity toward HepG2 liver cells – cell-based, plate reader, cherry-pick, antagonist series, cytotoxicity control, dose response (AID 743416); type: functional
# [12] = blockade of melanocortin 4 receptor signaling – cell-based, plate reader, cherry pick, counter-screen for LGR2 antagonist project, dose response (AID 743444); type: functional;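 further: transfected HEK 293 cells stimulated with alpha-MSH peptide; potency of inhibitors of the alpha-MSH evoked signal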
# [13] = blockers of bursicon-stimulated LGR2 cAMP reporter – cell-based, HEK293, CRE-luciferase reporter, cherry pick, set 2, dose response (AID 743343); type: functional;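 further: transfected cells were stimulated with diluted bursicon conditioned medium after compound addition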
# Caspase-6 = biological target: T3, Caspase-6 (Homo sapiens, UniProt P55212); experiment: inhibition of CASP6 peptide cleavage – biochemical, VEID-R110 fluorescence, cherry-pick, dose response (AID 720632)
# T3 sequence (P55212 whole entry): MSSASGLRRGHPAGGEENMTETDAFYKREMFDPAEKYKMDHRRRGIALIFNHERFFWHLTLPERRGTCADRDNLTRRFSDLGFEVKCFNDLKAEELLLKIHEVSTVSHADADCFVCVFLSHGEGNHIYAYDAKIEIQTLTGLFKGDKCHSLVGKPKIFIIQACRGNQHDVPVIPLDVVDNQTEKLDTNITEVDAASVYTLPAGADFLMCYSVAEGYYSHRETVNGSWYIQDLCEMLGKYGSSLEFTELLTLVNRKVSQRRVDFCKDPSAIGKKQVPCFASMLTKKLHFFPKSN
# Caspase-7 = Caspase-7 (Homo sapiens, UniProt P55210); experiment: caspase-7 enzyme inhibition, selectivity check – biochemical, DEVD-R110 fluorescence, cherry-pick, selectivity assay for caspase-6 inhibitor project, dose response (AID 743295); type: functional
# Sequence of Caspase-7 (P55210 24-198 limits assumed): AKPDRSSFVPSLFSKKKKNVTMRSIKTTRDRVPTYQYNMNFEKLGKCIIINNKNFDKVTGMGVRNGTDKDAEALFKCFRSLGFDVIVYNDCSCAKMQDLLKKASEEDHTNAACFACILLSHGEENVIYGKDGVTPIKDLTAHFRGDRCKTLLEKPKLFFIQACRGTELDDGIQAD
# Sequence of Caspase-7 (P55210 207-303 limits assumed): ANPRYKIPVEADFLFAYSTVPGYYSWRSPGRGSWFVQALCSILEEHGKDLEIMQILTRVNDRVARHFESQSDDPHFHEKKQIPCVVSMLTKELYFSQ
# Caspase-3 = biological target: T4, Caspase-3 (Homo sapiens, UniProt P42574); experiment: human caspase-3 protease activity blockade – biochemical, fluorescence, cherry-picked samples, selectivity assay for caspase-6 allosteric inhibitor project, dose response (AID 743291)
# T4 sequence (P42574 whole entry): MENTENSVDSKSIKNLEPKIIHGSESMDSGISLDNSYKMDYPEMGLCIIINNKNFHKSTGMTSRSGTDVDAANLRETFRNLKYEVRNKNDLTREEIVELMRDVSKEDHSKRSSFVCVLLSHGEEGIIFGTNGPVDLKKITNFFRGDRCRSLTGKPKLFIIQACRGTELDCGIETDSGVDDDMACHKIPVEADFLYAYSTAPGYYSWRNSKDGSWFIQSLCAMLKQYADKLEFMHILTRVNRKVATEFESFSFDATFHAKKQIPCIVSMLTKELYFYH
# Genome polyprotein = Genome polyprotein (dengue virus type 2, UniProt P29990); experiment: flavivirus cap methylation enzyme inhibition – biochemical, confirmation dose response, primary screen (AID 588689); type: functional
# Sequence of Genome polyprotein (P29990 2492-3391 limits assumed): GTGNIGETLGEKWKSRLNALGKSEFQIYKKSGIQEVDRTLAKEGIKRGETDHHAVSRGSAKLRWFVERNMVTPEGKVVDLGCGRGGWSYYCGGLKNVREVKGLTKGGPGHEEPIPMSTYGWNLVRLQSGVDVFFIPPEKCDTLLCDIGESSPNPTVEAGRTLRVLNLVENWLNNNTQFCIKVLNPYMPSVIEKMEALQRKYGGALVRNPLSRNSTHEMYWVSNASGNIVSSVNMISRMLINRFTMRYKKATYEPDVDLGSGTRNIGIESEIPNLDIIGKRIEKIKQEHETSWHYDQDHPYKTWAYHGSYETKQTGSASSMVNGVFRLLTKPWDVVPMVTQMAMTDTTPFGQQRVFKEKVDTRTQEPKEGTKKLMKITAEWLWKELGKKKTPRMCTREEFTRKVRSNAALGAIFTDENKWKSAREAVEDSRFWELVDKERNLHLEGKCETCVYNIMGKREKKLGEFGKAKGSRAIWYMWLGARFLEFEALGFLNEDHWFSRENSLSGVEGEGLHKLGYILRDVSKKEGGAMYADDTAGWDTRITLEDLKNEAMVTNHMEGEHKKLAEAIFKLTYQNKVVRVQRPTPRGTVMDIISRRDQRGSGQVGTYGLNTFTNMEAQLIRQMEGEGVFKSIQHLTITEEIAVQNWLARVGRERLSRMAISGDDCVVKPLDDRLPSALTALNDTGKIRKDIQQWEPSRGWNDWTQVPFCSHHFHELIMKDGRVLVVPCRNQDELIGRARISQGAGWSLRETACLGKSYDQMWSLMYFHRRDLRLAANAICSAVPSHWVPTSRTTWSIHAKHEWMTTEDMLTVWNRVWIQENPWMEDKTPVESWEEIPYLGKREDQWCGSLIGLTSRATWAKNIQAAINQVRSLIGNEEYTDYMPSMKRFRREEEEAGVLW
# [14] = Shn3 3'UTR reporter signal decrease – cell-based, Clone20 osteoblasts, firefly luciferase, cherry-pick, set 2, Schnurri-3 inhibitor project, dose response (AID 720490); type: functional;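 further: actives lower the luminescence signal as inhibitors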
# [15] = non-specific 3'UTR reporter inhibition in Clone20-Shn3RL – cell-based, Renilla luciferase, cherry-picked, counter-screen for Shn3 inhibitor project, dose response (AID 624133); type: functional
# [16] = COV434 cell viability loss – plate reader, dry powder, SA7, cytotoxicity control for PAX8 inhibitor project, dose response (AID 743145); type: functional, cell-based
# [17] = PAX8-dependent cell viability loss – plate reader, dry powder, dose response (AID 743049); type: functional, cell-based
# [18] = inhibitors acting on PAX2 in cells – cell-based, plate reader, dry powder samples, selectivity assay for PAX8 inhibitor project, dose response (AID 743048); type: functional;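 further: HEK293 cells carrying a WT1 promoter luciferase reporter driven by expressed Pax2; potency is for inhibition of Pax2 driven reporter signal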
# Paired box protein Pax-8 = Paired box protein Pax-8 (Homo sapiens, UniProt Q06710); experiment: PAX8 transcriptional activity inhibition in RMG-I – RMG-I cells, luciferase, cherry-pick, dose response (AID 687027); type: functional, cell-based;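 further: luciferase reporter driven by Pax8 target thyroperoxidase promoter measured by SteadyGlo luminescence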
# Sequence of Paired box protein Pax-8 (Q06710 whole entry): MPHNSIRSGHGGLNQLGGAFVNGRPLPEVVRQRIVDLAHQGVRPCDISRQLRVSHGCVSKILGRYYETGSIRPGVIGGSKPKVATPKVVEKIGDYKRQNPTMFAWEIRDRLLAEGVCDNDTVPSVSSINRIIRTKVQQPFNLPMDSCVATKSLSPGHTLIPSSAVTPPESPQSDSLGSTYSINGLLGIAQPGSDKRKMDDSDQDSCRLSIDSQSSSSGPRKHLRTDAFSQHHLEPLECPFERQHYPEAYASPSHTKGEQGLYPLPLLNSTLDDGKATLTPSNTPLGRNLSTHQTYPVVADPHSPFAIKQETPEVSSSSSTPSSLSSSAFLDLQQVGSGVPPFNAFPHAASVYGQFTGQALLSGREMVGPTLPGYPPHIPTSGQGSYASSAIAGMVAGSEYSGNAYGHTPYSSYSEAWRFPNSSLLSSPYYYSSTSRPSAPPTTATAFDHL
# [19] = reduction of Shn3 3'UTR-driven luciferase in osteoblasts – cell-based, Clone20 osteoblasts, firefly luciferase, cherry-picked, dose response (AID 624132); type: functional;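 further: firefly luciferase luminescence from reporter carrying the Shn3 3'UTR in osteoblasts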
# [20] = COV362 cell viability loss – plate reader, dry powder, SA12, cytotoxicity control for PAX8 inhibitor project, dose response (AID 743144); type: functional, cell-based
# [21] = PAX5 cellular inhibition readout – cell-based, plate reader, dry powder samples, selectivity assay for PAX8 inhibitor project, dose response (AID 743047); type: functional;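 further: HEK293 cells carrying a Pax5 driven CD19 promoter luciferase reporter; potency of inhibitors that lower reporter luminescence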
# HEK293 = experiment: EBV LMP1 TES2 canonical NF-kB signalling blockers – cell-based, HEK293, luciferase, cherry-pick, dose response (AID 588343); type: functional; settings: Homo sapiens
# [22] = toxicity toward immortalized ovarian surface epithelium – cell-based, plate reader, dry powder samples, cytotoxicity control for PAX8 inhibitor project, dose response (AID 743045); type: functional
# [23] = OV-90 cell viability loss – plate reader, dry powder, SA8, PAX8 inhibitor project, dose response (AID 743149); type: functional, cell-based
# [24] = A549 cell cytotoxicity, dose response, cytotoxicity control, plate reader, cherry-pick, antagonist series (AID 743412); type: functional, cell-based
# [25] = viability loss in LCL cells – cell-based, plate reader, dry powder, set 2, cytotoxicity control, dose response (AID 624367); type: functional
# [26] = A2780 cell killing – plate reader, dry powder samples, cytotoxicity control, dose response (AID 743046); type: functional, cell-based
# [27] = cytotoxicity in HEK293 background cells – cell-based, dry powder, set 2, counter-screen for EBV LMP1 inhibitor project, dose response (AID 624374); type: functional
# [28] = OVCAR8 cell viability loss – plate reader, dry powder samples, PAX8 project, dose response (AID 743197); type: functional, cell-based; settings: OVCAR-8
# [29] = biological target: Metabotropic glutamate receptor 3 (Rattus norvegicus, UniProt P31422); experiment: inhibitors of rat mGlu3 Galpha15 signaling – TREx293 cells, calcium flux, mGlu3 NAM project, dose response (AID 651840); type: functional
# [30] = biological target: Endoplasmic reticulum aminopeptidase 1 (Homo sapiens, UniProt Q9NZ08); experiment: inhibition of human ERAP1 enzyme activity – biochemical, cherry-pick, set 2, plate reader, dose response (AID 743314)
# Sequence of Endoplasmic reticulum aminopeptidase 1 (Q9NZ08 whole entry): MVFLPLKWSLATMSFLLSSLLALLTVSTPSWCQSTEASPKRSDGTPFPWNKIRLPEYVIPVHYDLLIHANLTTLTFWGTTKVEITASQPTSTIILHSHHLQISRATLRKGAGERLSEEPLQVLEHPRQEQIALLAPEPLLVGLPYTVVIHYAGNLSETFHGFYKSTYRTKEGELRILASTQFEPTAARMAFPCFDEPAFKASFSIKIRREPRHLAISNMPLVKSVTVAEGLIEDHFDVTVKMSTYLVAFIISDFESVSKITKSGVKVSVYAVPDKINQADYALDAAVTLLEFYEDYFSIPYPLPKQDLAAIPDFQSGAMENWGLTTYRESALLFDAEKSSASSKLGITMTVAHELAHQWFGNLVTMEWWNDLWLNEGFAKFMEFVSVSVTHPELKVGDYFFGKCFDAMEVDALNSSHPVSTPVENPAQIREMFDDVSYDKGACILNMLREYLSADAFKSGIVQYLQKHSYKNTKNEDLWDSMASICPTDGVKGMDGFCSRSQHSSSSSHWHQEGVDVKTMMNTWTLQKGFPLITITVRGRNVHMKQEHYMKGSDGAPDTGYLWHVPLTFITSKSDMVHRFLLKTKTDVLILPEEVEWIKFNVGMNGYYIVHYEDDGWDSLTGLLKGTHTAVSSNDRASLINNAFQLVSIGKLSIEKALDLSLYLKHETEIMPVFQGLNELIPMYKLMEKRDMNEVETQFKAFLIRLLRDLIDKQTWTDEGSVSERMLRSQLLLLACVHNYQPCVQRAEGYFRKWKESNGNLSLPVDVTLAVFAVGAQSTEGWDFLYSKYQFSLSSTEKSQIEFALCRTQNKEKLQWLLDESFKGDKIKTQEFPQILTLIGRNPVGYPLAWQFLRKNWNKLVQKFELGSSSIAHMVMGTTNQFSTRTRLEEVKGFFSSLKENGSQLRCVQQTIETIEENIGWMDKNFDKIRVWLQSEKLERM
# [31] = Late stage assay provider results from the probe development effort to identify selective inhibitors of heat shock protein 90 (HSP90): Absorbance-based cell proliferation assay in SKBR3 cells.; type: functional; settings: SK-BR-3
# [32] = Late stage assay provider results from the probe development effort to identify selective inhibitors of heat shock protein 90 (HSP90): Absorbance-based cell proliferation assay in MCF7 cells.; type: functional
# [33] = T. cruzi growth inhibition in host cells, dose response, cell-based, plate reader, dry powder, set 2 (AID 652275); type: functional
# [34] = viability loss in A549 lung cancer cells – cell-based, cherry-picks, […], cytotoxicity control, dose response (AID 1053119); type: functional
# [35] = viability loss in HEK293 kidney cells – cell-based, cherry-picks, set 5, cytotoxicity control, dose response (AID 1053117); type: functional
# [36] = viability loss in HepG2 hepatoma cells – cell-based, cherry-picks, set 5, cytotoxicity control, dose response (AID 1053118); type: functional
# [37] = Late stage assay provider results from the probe development effort to identify inhibitors of Protein Arginine Deaminase 4 (PAD4): cell-based absorbance-based assay to assess cytotoxicity of test compounds.; type: functional
smiles,measurement,setting,value
O=C1C[S+]([O-])CN1c1ccc(Oc2ccccc2)cc1 (centres undefined),IC50,[1],> 122 µM (inactive)
same,IC50,[2],12.5 µM (inactive)
CCOCCCN=C(S)N1CCCN(c2nc3cc(C)c(C)cc3cc2C#N)CC1,AC50,cells,> 52 µM (inactive)
Cc1ccc(OCC(=O)Nc2ccc(-c3nc4ncccc4o3)cc2)c(C)c1,EC50,[3],0.503 µM (active)
same,EC50,[4],316 nM (active) and 92.7 nM (active)
Cc1ccc(C(=O)NC(=S)NNC(=O)c2ccccc2O)cc1,IC50,[5],> 122 µM (inactive)
same,EC50,[6],1.29 µM (active)
same,EC50,Streptococcus,5.63 µM (active)
O=C(/C=C/c1ccc([N+](=O)[O-])cc1)N1CCN(S(=O)(=O)c2cccs2)CC1,IC50,Beta-galactosidase,> 80 µM (inactive)
CCOc1c(C(N)=O)c(-c2ccccc2)c2c(O)nc3ccccc3n12,IC50,Estrogen receptor beta [7],> 50 µM (not active)
same,AC50,[8],49.9 µM (active)
same,IC50,Estrogen receptor beta [9],33.6 µM (not active)
COc1ccc(NC(=O)Nc2cccc([N+](=O)[O-])c2)cc1Cl,AC50,[10],> 52 µM (inactive)
same,AC50,[11],26.8 µM (active)
same,AC50,[12],34.3 µM (active)
same,AC50,[13],33.1 µM (active)
CC(Cc1ccc(O)cc1)NCC(O)c1ccc(O)c(O)c1 (centres undefined),AC50,Caspase-6,3.68 µM (active)
same,EC50,[4],553 nM (active)
same,AC50,Caspase-7,> 70 µM (inactive)
same,AC50,Caspase-3,24.5 µM (active)
same,IC50,Genome polyprotein,> 100 µM (active)
CCCn1c(C)cc(C(=O)CN2C(=O)c3ccccc3S2(=O)=O)c1C,AC50,[14],9.79 µM (active)
same,AC50,[15],26.8 µM (active)
same,AC50,[16],> 100 µM (inactive)
same,AC50,[17],55.7 µM (active)
same,AC50,[18],4.42 µM (active)
same,AC50,Paired box protein Pax-8,3.55 µM (active)
same,AC50,[19],2.98 µM (active)
same,AC50,[12],0.798 µM (active)
same,AC50,[20],77.7 µM (active)
same,AC50,[21],3.24 µM (active)
same,AC50,HEK293,0.211 µM (active)
same,AC50,[22],81.2 µM (active)
same,AC50,[23],82.5 µM (active)
same,AC50,[13],0.69 µM (active)
same,AC50,[24],> 52 µM (inactive)
COc1cccc(C#Cc2ccc([C@@H]3[C@H](C#N)N(C(=O)c4ccccn4)[C@H]3CO)cc2)c1,AbsAC35,[25],55.61 µM
same,AC50,[26],12.7 µM (active)
same,AC50,[16],> 70 µM (inactive)
same,AC50,[17],35.1 µM (active)
same,AbsAC35,[27],296.86 µM
same,AC50,[18],> 70 µM (inactive)
same,AC50,Paired box protein Pax-8,11.9 µM (active)
same,AC50,[21],> 70 µM (inactive)
same,AC50,[28],63.7 µM (active)
COc1ccc(C#Cc2ccc(C(=O)N3CCCC(C)(O)C3)cc2)cc1 (centres undefined),pIC50,[29],6.28
CCC(=O)N1[C@@H]2c3ccc(/C=C/c4ccccc4)c(=O)n3C[C@H]1[C@H](CO)[C@H]2C(=O)N(C)C,AC50,[30],9.44 µM (active)
COC(=O)c1cccc(COc2ccc3cc(Br)c(=O)oc3c2)c1,IC50,[31],> 100 µM (inactive)
same,IC50,[32],> 100 µM (inactive)
CC(C)N1CC2(CN(Cc3ccc(-c4ccccc4)cc3)C2)Oc2c(NC(=O)c3ccncc3)cccc2C1=O,AC50,[33],0.00131 µM (active)
C[C@H](CO)N1C[C@H](C)[C@@H](CN(C)C(=O)Nc2cccc3ccccc23)Oc2c(NC(=O)Nc3ccc(C(F)(F)F)cc3)cccc2C1=O,AC50,[34],> 52 µM (inactive)
same,AC50,[35],> 52 µM (inactive)
same,AC50,[36],34.4 µM (active)
NC1=CC(=O)c2ccc(-c3cccc(C(=O)O)n3)nc2C1=O,CC50,[37],26.5 µM (inactive)

# Source: ChEMBL document CHEMBL1201862, “PubChem BioAssay data set” (2004)
